Data as given in BindingDB's records for doi:10.1021/jm991151j (Smithkline Beecham Pharmaceuticals, 2000).
Where a name gives a salt, the structure may show the parent alone.

Tests used:
[1] = target: T1, 5-hydroxytryptamine receptor 1F (Homo sapiens, UniProt P30939)
T1 sequence (P30939 whole entry): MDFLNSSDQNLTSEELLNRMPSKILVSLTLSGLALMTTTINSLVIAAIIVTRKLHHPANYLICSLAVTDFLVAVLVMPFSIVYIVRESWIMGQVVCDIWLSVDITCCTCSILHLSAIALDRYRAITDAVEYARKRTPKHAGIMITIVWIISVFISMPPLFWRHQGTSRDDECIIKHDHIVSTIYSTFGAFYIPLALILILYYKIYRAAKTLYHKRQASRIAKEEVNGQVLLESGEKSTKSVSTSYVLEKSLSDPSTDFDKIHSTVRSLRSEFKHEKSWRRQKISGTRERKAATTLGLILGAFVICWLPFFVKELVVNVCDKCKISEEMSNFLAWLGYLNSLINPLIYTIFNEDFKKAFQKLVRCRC

[2] = target: 5-hydroxytryptamine receptor 1E (Homo sapiens, UniProt P28566)
[3] = target: 5-hydroxytryptamine receptor 4 (Homo sapiens, UniProt Q13639)
[4] = target: 5-hydroxytryptamine receptor 2B (Homo sapiens, UniProt P41595)
[5] = target: T2, Alpha-1B adrenergic receptor (Homo sapiens, UniProt P35368)
T2 sequence (P35368 whole entry): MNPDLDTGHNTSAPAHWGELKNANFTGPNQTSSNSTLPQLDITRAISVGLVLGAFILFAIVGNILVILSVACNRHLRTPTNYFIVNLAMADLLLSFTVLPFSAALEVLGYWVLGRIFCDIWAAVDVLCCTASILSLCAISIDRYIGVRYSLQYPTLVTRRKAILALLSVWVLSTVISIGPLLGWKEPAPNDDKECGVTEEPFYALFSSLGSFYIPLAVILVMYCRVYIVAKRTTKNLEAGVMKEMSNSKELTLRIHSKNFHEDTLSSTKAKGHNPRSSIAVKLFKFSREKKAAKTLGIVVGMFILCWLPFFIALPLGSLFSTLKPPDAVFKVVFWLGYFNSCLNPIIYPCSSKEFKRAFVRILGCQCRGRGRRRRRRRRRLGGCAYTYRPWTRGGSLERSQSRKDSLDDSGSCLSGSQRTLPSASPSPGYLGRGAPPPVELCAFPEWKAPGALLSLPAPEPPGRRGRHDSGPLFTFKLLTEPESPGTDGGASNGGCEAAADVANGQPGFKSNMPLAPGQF

[6] = target: 5-hydroxytryptamine receptor 6 (Homo sapiens, UniProt P50406)
[7] = target: T3, 5-hydroxytryptamine receptor 2C (Homo sapiens, UniProt P28335)
T3 sequence (P28335 whole entry): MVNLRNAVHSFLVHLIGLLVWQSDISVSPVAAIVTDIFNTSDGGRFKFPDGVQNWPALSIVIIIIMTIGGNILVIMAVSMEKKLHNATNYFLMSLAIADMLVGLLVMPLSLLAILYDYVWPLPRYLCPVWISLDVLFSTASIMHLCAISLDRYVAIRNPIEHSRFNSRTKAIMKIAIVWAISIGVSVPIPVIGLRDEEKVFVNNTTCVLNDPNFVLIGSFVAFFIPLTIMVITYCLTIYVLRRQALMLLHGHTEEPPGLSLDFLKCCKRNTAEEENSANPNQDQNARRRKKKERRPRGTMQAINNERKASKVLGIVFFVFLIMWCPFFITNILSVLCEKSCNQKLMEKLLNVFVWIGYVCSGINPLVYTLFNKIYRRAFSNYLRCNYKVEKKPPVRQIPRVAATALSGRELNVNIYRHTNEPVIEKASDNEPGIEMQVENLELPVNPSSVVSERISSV

5-hydroxytryptamine receptor 1E, sequence (P28566 whole entry): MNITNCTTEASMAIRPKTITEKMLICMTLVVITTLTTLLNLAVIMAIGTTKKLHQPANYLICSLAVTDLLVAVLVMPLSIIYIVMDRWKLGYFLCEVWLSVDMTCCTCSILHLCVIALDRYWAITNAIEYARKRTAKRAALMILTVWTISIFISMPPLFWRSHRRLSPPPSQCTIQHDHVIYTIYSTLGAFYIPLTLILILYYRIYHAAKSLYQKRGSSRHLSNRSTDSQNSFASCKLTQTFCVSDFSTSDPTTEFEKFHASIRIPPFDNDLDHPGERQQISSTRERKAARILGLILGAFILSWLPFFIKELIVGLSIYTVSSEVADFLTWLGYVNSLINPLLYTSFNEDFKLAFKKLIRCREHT
5-hydroxytryptamine receptor 4, sequence (Q13639 whole entry): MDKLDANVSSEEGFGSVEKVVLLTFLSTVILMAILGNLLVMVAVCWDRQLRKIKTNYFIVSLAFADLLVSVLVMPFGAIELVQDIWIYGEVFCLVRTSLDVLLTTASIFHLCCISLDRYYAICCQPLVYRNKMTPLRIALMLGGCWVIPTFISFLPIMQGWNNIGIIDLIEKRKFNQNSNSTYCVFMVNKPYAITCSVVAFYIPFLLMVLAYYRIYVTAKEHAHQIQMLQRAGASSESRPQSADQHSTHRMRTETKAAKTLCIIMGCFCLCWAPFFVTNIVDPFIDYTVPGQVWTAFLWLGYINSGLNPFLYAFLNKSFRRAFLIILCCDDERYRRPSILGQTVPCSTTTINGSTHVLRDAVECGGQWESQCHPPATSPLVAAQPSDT
5-hydroxytryptamine receptor 2B, sequence (P41595 whole entry): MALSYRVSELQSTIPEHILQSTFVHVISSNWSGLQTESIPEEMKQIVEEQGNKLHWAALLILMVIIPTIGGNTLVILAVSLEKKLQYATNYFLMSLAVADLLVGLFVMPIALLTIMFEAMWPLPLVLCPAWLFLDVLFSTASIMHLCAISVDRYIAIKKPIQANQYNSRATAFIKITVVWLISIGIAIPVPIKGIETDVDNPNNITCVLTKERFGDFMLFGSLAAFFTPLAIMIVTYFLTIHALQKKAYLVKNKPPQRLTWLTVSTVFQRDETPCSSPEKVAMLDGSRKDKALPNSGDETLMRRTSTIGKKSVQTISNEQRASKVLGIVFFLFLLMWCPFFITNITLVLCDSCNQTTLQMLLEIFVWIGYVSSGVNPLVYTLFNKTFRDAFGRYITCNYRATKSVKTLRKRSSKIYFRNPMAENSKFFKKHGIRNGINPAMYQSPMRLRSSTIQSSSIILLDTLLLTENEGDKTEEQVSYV
5-hydroxytryptamine receptor 6, sequence (P50406 whole entry): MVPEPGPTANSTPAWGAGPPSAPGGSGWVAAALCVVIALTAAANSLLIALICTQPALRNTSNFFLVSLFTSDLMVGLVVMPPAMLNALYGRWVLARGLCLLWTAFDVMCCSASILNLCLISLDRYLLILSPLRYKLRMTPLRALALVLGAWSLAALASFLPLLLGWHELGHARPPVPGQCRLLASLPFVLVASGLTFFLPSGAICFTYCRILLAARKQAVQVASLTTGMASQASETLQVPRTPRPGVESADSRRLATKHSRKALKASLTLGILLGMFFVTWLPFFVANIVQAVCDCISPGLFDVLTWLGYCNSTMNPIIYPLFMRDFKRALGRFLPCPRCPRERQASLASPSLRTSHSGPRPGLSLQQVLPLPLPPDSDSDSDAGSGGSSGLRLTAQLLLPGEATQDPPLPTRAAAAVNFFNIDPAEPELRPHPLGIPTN

| SMILES | Ki [1] | Ki [2] | Ki [3] | Ki [4] | Ki [5] | Ki [6] | Ki [7] |
| --- | --- | --- | --- | --- | --- | --- | --- |
| CC1CCN(CC[C@H]2CCCN2S(=O)(=O)c2ccc(Cl)c(Cl)c2)CC1 [(R)-1-(2-(1-(3,4-Dichloro-benzenesulfonyl)-pyrrolidin-2-yl)-ethyl)-4-methyl piperidine] | 3.16 µM | – | 3.16 µM | – | – | – | – |
| COc1cccc(S(=O)(=O)N2CCC[C@@H]2CCN2CCC(C)CC2)c1 [(R)-1-(2-(1-(3-methoxy-benzenesulfonyl)-pyrrolidin-2-yl)-ethyl-4-methylpiperidine] | – | – | – | – | – | > 10 µM | – |
| CC1CCN(CC[C@H]2CCCN2S(=O)(=O)c2cccc(Br)c2)CC1 [(R)-1-(2-(1-(3-bromo-benzenesulfonyl)-pyrrolidin-2-yl)-ethyl)-4-methyl piperidine] | 5.01 µM | 2.51 µM | 6.31 µM | 1.58 µM | – | – | 5.01 µM |

Continued, values first:

| Ki [1] | Ki [2] | Ki [3] | Ki [4] | Ki [5] | Ki [6] | Ki [7] | SMILES |
| --- | --- | --- | --- | --- | --- | --- | --- |
| > 10 µM | > 10 µM | – | – | – | – | – | CC1CCN(CC[C@H]2CCCN2S(=O)(=O)c2cccc3ccccc23)CC1 [(R)-4-Methyl-1-(2-(1-(naphthalene-1-sulfonyl)-pyrrolidin-2-yl)-ethyl)-piperidine(10)] |
| > 10 µM | > 10 µM | > 10 µM | 2.51 µM | – | – | – | Cc1cccc(S(=O)(=O)N2CCC[C@@H]2CCN2CCC(C)CC2)c1 [(R)-4-Methyl-1-(2-(1-toluene-3-sulfonyl)-pyrrolidin-2-yl)-ethyl)-piperidine (Oxalate salt)] |
| 3.16 µM | – | – | – | > 10 µM | – | – | CC1CCN(CC[C@H]2CCCN2S(=O)(=O)c2cccc(O)c2)CC1 [(R)-3-(2-(2-(4-methylpiperidin-1-yl)ethyl)pyrrolidine-1-sulfonyl)phenol] |
